Earlier results as cited in patent US20070184040A1, “Compositions for delivery of coenzyme Q10” (priority 2006, published 2007).

COC1=C(OC)C(=O)C(C/C=C(\C)CC/C=C(\C)CC/C=C(\C)CC/C=C(\C)CC/C=C(\C)CC/C=C(\C)CC/C=C(\C)CC/C=C(\C)CC/C=C(\C)CCC=C(C)C)=C(C)C1=O [CoQ10, Coenzyme Q10]
solubility in most hydrophilic solvents, such as water: very poorly soluble
